Data from patent US11246874B1, “Treatment of COVID-19” (Oxygen Biotech LLC, priority 2021, dated 2022).

Assays:
Format in all cases: cell-based
[1] = tested on: SARS-CoV-2 virus, strain S-007; assay: Infection of Vero cells with SARS-CoV-2; viral RNA (E-gene) in supernatant by 1-step RT-qPCR; conditions: bazedoxifene 10 μM in DMSO, 2 days of culture
Protocol: 0.15×10^6/ml Vero cells were infected with SARS-CoV-2 virus, an isolate from the environment, strain designated as S-007, provided by the Těchonin Biological Protection Department. Vero cells were then incubated in Dulbecco's Modified Eagle's Medium (DMEM) with 2% fetal bovine serum (FBS), DMSO 1 μl/ml, or in culture medium with bazedoxifene 10 […] in DMSO dosed from a starting stock solution of 10 mM bazedoxifene in DMSO, corresponding to a bazedoxifene concentration of […]. After 2 days of culture, the virus was quantified in the cell supernatant as follows.
Viral RNA was detected by 1-step RT-qPCR. Total RNA was isolated from 200 μl of supernatant of SARS-CoV-2 infected cells using magnetic beads. SARS-CoV-2 RNA was determined by amplifying the SARS-CoV-2 E-gene (Generi Biotech) using the SensiFast Probe One-Step Kit (BioLine) and Light Cycler 480 II (Roche). Viral RNA was quantified absolutely using a calibration curve.

[2] = tested on: SARS-CoV-2 virus (strain SARS-CoV-2/human/Czech Republic/951/2020); assay: Antiviral testing in Vero-E6 cells, virus titer by plaque titration; conditions: Vero-E6, 3.8 μg/μl, MOI 0.1, 48 h
Protocol: Confluent culture of Vero-E6 cells (ATCC CRL-1586) was used to test for antiviral activity. Cells were cultured in a 96-well microtiter plate (2×10^4 cells per well) for 24 h at 37° C. and 5% CO2. The culture medium was then aspirated and replaced with fresh medium containing the test substance in a concentration range of 0-3.8 μg/μl. At the same time, the cells were infected with the SARS-CoV-2 virus (strain SARS-CoV-2/human/Czech Republic/951/2020) at a multiplicity of infection of 0.1. The thus treated and infected cells were incubated for 48 h at 37° C. and 5% CO2. The medium was then aspirated from the culture wells and the virus titer was determined by plaque titration (Stefanik et al., Microorganisms 2021, 9 (3), 471; https://doi.org/10.3390/microorganisms9030471).
Results are depicted in FIG. 2.

[3] = tested on: Vero-E6 cells (ATCC CRL-1586); assay: Cytotoxicity in Vero-E6 cell culture (Cell Counting Kit-8); conditions: 48 h incubation, range 0-15.2 μg/μl
Protocol: The toxicity of the test substance was measured in a culture of Vero-E6 cells (ATCC CRL-1586). Cells were cultured in a 96-well microtiter plate (2×10^4 cells per well) for 24 h at 37° C. and 5% CO2. Then, the test substance was added to the cells in a concentration range of 0-15.2 μg/μ1, and the thus treated cells were subsequently incubated for another 48 h. The viability of the cells was then determined using the Cell Counting Kit-8 kit (Dojindo Molecular Technologies, Munich, Germany), exactly according to the manufacturer's instructions. Results are depicted in FIG. 1. The maximum non-toxic concentration of test substance in Vero-E6 cell culture was 3.8 μg/μl.

Substance: bazedoxifene
- % of DMSO ([1]; E-gene copies): 0.17%
- Fold decrease compared to DMSO ([1]; E-gene copies): 578.09
- E-gene No. of copies of the gene/ml ([1]; cell supernatant): 5.39 × 10^7 copies of the gene/ml
- decrease of titer in the treated group ([2]; versus control group): approximately 1 log10 pfu/ml
- mean virus titer ([2]; control group 7.4 log10 pfu/ml): 6.3 log10 pfu/ml
- maximum non-toxic concentration [3]: 3.8 µg/µL
